US20240417743A1, “METHODS FOR IMPROVING GENOME ENGINEERING AND REGENERATION IN PLANT” (KWS SAAT SE & Co. KGaA, priority 2018, published 2024)

Test system: maize WUS2 promoter
Test: Maize WUS2 promoter tDT report construct co-bombardment
Assay type: cell-based
Source text: Homeobox domain transcriptional factor WUSCHEL (WUS) plays an important role in establishing and maintaining of shoot meristem. To identify boost factors that promote endogenous WUS2 expression, the maize WUSCHEL 2 promoter report construct (pAMK-ZmWUS2-tDT-noT) (SEQ ID NO: 43; FIG. 13) was used to illustrate maize WUS2 promoter activity. The maize WUS2 promoter (pZmWUS2) drove expression of the tDT report gene in this report construct (FIG. 13). The WUS2 promoter report construct was co-bombarded with boost factors individually in maize immature embryos and leaf segments.
Fresh leaf segments of 1-2 cm in length were prepared from the in vitro-cultured maize A188 seedling of 10-14 days old, and placed on the Osmotic medium with abaxial side up for 4 hours. For co-bombardment, two plasmids (100 ng of ZmWUS2 promoter report (FIG. 13) and 100 ng of boost construct, e.g. TaRKD4 (FIG. 5)) were premixed and coated onto 100 μg of gold particles size 0.4 μm. Immature embryo preparation, bombardment, and post-bombardment culturing were carried out as described in Example 1 and Example 2. Red fluorescence showing tDT expression was monitored using a fluorescent microscope started at 16 hours after bombardment.

[1] = A188 leaf segments, after bombardment

Q: “wheat RKD4: wheat RKD4 boost gene, expression construct pABM-BdEF1-TaRKD4 (SEQ ID NO: 28)” was tested. Which “time at which tDT signal peaked” value [1] did it give?
A: around 44 hours

Q: What about the “time at which tDT signal was detected” value [1] of the same substance?
A: around 36 hours

Q: And the “activation of maize WUS2 genes” value (immature embryos and leaf segments)?
A: strongly activate

Q: And the “tDT red fluorescent signals” value (immature embryos, 44 hours after bombardment, compared to WUS promoter reporter only)?
A: extremely strong red fluorescent signals
